# Data reported in ChEMBL document CHEMBL4265897, “Discovery of benzothiazole amides as potent antimycobacterial agents” (Bioorg Med Chem Lett, 2018).
# Columns and labels:
# [1] = test system: Mycobacteroides chelonae; experiment: Antimycobacterial activity against Mycobacterium chelonae 93 by CLSI method; assay type: functional
# [2] = test system: Mycobacteroides abscessus; experiment: Antimycobacterial activity against Mycobacterium abscessus 21 by CLSI method; assay type: functional
# [3] = test system: Mycobacteroides abscessus; experiment: Antimycobacterial activity against Mycobacterium abscessus 79 by CLSI method; assay type: functional
# [4] = test system: Mycobacterium intracellulare; experiment: Antimycobacterial activity against Mycobacterium intracellulare 1956 by CLSI method; assay type: functional
# [5] = test system: Mycobacteroides abscessus; experiment: Antimycobacterial activity against Mycobacterium abscessus 103 by CLSI method; assay type: functional
# [6] = test system: Mycolicibacterium peregrinum; experiment: Antimycobacterial activity against Mycobacterium peregrinum ATCC 700686 by CLSI method; assay type: functional
# [7] = test system: Mycobacteroides abscessus; experiment: Antimycobacterial activity against Mycobacterium abscessus 1 by CLSI method; assay type: functional
# [8] = test system: Mycobacteroides abscessus; experiment: Antimycobacterial activity against Mycobacterium massiliense 119 by CLSI method; assay type: functional, Mycobacterium abscessus subsp. massiliense
# [9] = test system: Mycolicibacterium fortuitum; experiment: Antimycobacterial activity against Mycobacterium fortuitum 41 by CLSI method; assay type: functional
# [10] = test system: Mycobacterium avium; experiment: Antimycobacterial activity against Mycobacterium avium 101 by CLSI method; assay type: functional
# [11] = test system: Mycobacterium tuberculosis; experiment: Antimycobacterial activity against Mycobacterium tuberculosis H37Rv MC2 6206 by CLSI method; assay type: functional
Compound,MIC [1] [µg/mL],MIC [2] [µg/mL],MIC [3] [µg/mL],MIC [4] [µg/mL],MIC [5] [µg/mL],MIC [6] [µg/mL],MIC [7] [µg/mL],MIC [8] [µg/mL],MIC [9] [µg/mL],MIC [10] [µg/mL],MIC [11] [µg/mL]
Cc1cc(C)c2sc(NC(=O)C34CCCC(C)(CCC3)C4)nc2c1,0.12,0.12,0.12,8,0.25,0.25,0.25,0.12,1,8,
Cc1cc(C)c2sc(NC(=O)C3CC(C)CC(C)(C)C3)nc2c1 (stereo not drawn),0.25,0.25,0.25,> 64,0.25,0.25,0.5,0.5,0.5,> 64,
CC12CCCC(C(=O)Nc3nc4ccc(Br)cc4s3)(CCC1)C2,0.25,0.12,0.12,4,0.12,0.12,0.25,0.12,0.5,8,
CC12CCCC(C(=O)Nc3nc4c(F)cc(F)cc4s3)(CCC1)C2,0.12,0.12,0.12,4,0.25,0.06,,0.12,0.25,4,
CC1(C(=O)Nc2nc3ccc(OC(F)(F)F)cc3s2)CCCCCC1,0.25,0.12,0.12,4,0.25,0.5,0.25,0.12,2,8,
CC12CCCC(C(=O)Nc3nc4ccc(C(F)(F)F)cc4s3)(CCC1)C2,0.5,0.25,0.25,4,0.12,0.12,0.5,0.25,0.5,> 8,
O=C(Nc1nc2ccc(C(F)(F)F)cc2s1)C1CCCC(C(F)(F)F)C1 (stereo not drawn),0.5,1,2,16,,1,2,1,2,16,
CC12CCCC(C(=O)Nc3nc4ccc(OC(F)F)cc4s3)(CCC1)C2,0.25,0.12,0.12,4,,0.12,0.25,0.12,1,8,
CC12CCCC(C(=O)Nc3nc4cc(F)cc(F)c4s3)(CCC1)C2,0.06,0.06,0.06,4,0.06,0.06,0.12,0.25,0.25,4,
CC1(C(=O)Nc2nc3ccc(OC(F)(F)F)cc3s2)CCCCC1,0.25,0.12,0.12,4,0.12,0.5,,0.12,2,8,4
CC1CC(C(=O)Nc2nc3ccc(C(F)(F)F)cc3s2)CC(C)(C)C1 (stereo not drawn),0.25,0.5,0.5,> 64,,0.25,0.5,2,0.5,> 64,
CC1CCCC(C(=O)Nc2nc3ccc(C(F)(F)F)cc3s2)C1 (stereo not drawn),1,2,2,16,,1,4,2,2,16,16
CC1CC(C(=O)Nc2nc3cccc(O)c3s2)CC(C)(C)C1 (stereo not drawn),1,16,8,4,2,0.12,,2,2,,
CC1(C)CCCC(C(=O)Nc2nc3ccc(C(F)(F)F)cc3s2)C1 (stereo not drawn),0.25,64,64,> 64,,64,> 64,0.5,> 64,> 64,
CC1CC(C(=O)Nc2nc3cc(F)cc(F)c3s2)CC(C)(C)C1 (stereo not drawn),0.25,0.25,0.25,8,0.25,0.12,0.5,0.25,0.25,8,
CC1CC(C(=O)Nc2nc3c(F)cccc3s2)CC(C)(C)C1 (stereo not drawn),2,1,2,8,,2,2,1,0.5,8,4
CC1CC(C(=O)Nc2nc3c(F)cc(Br)cc3s2)CC(C)(C)C1 (stereo not drawn),0.25,0.5,0.5,16,1,0.5,1,1,2,> 64,
